Structures can show the parent of a compound that is named as a salt. Each block holds one compound with its values, some of them ahead of it.
Assays:
Format in all cases: physicochemical
[1] = Release rate by dialysis in a diffusion chamber model; settings: against 20% glycerol, 3% Poloxamer 407, pH 7.4, 37° C.
Procedure: Amiodarone HCl and a tocol emulsion containing amiodarone and tocopherol phosphate as a tocol-soluble binary ion pair, prepared as mentioned above, were dialyzed against 20% glycerol, 3% Poloxamer 407 at pH 7.4 and 37° C.
The rate of free or complexed drug exiting the dialysis chamber provides an indirect estimate of the “sustained release” properties of the emulsion and the strength of the ion pair species.

[2] = Solubility of clarithromycin in tocopherol oil phase (crystals on cooling)
Procedure: Clarithromycin was obtained as the free base from Wockhardt (Delhi, India). Vitamin E Succinate (VESA) was obtained from Eastman (Freeport Tenn.). Capmul® MCM was obtained from Abitec (Janesville Wis.); Poloxamer® 407 (Pluronic® F-127) from BASF (Parsippany N.J.); PEG-400 from Spectrum Chemicals (Gardenia Calif.), and d-δ-tocopherol from Sigma Chemicals (St Louis MO). An oil phase consisting of d-δ-tocopherol and Capmul MCM was prepared using 2 parts of δ-tocopherol. Dry ethanol was used to dissolve the components at 70° C. and the ethanol was then removed under vacuum. […] A tocol-soluble ion pair of this compound was then produced by addition of a stoichiometric equivalent of Vitamin E succinate (VESA) as the free acid. […] The clarithromycin was now sufficiently soluble in the tocopherol oil to allow subsequent preparation of the emulsion. The oil was then re-heated to 45° C. and degassed immediately prior to emulsification as described below.

[3] = Erythromycin solubility in oils
[4] = Doxorubicin ion pair solubility in vitamin E and emulsification; settings: ion pair with vitamin E phosphate free acid at 2:1 molar ratio
Source text: A fine emulsion can be prepared using high pressure homogenization to reduce particle size.

Rate of dialysis / diffusion out of the dialysis chamber [1]: linear with concentration
SMILES: CCCCc1oc2ccccc2c1C(=O)c1cc(I)c(OCCN(CC)CC)c(I)c1 [Amiodarone HCl]

Crystallization upon cooling of the oil ([2]; after addition of a stoichiometric equivalent of Vitamin E succinate (free acid), re-dissolution in ethanol and cooling): no crystals formed
Crystallization upon cooling of the oil ([2]; d-δ-tocopherol/Capmul MCM oil phase with surfactant, ethanol removed, without Vitamin E succinate): crystals of clarithromycin were observed
SMILES: CC[C@H]1OC(=O)[C@H](C)[C@@H](O[C@H]2C[C@@](C)(OC)[C@@H](O)[C@H](C)O2)[C@H](C)[C@@H](O[C@@H]2O[C@H](C)C[C@H](N(C)C)[C@H]2O)[C@](C)(OC)C[C@@H](C)C(=O)[C@H](C)[C@@H](O)[C@]1(C)O [Clarithromycin]

solubility in medium-chain triglycerides (MCT) ([3]; MCT): ~4 % w/w
solubility in α-tocopherol ([3]; α-tocopherol): approximately 10 % w/w
SMILES: CC[C@H]1OC(=O)[C@H](C)[C@@H](O[C@H]2C[C@@](C)(OC)[C@@H](O)[C@H](C)O2)[C@H](C)[C@@H](O[C@@H]2O[C@H](C)C[C@H](N(C)C)[C@H]2O)[C@](C)(O)C[C@@H](C)C(=O)[C@H](C)[C@@H](O)[C@]1(C)O [Erythromycin]

Solubility of ion pair in vitamin E [4]: soluble in vitamin E
SMILES: COc1cccc2c1C(=O)c1c(O)c3c(c(O)c1C2=O)C[C@@](O)(C(=O)CO)C[C@@H]3O[C@H]1C[C@H](N)[C@H](O)[C@H](C)O1 [doxorubicin free base, Doxorubicin]

Reference: patent US6479540B1, “Compositions of tocol-soluble therapeutics” (Sonus Pharmaceuticals, Inc., priority 1999, dated 2002)
